Test results as given in ChEMBL document CHEMBL2062394, “Azide-alkyne cycloaddition en route to novel 1H-1,2,3-triazole tethered isatin conjugates with in vitro cytotoxic evaluation” (Eur J Med Chem, 2012).
pIC50: −log10 of the molar value.

What was measured:
A549 [1] = assay: Growth inhibition of human A549 cells at 10 uM after 48 hrs by SRB assay; assay type: functional; settings: A549, 48 h, read-out: GI
A549 [2] = assay: Growth inhibition of human A549 cells at 50 uM after 48 hrs by SRB assay; assay type: functional; settings: A549, 48 h, read-out: GI
A549 [3] = assay: Growth inhibition of human A549 cells at 100 uM after 48 hrs by SRB assay; assay type: functional; settings: A549, 48 h, read-out: GI
PC-3 [4] = assay: Growth inhibition of human PC3 cells at 10 uM after 48 hrs by SRB assay; assay type: functional; settings: PC-3, 48 h, read-out: GI
PC-3 [5] = assay: Growth inhibition of human PC3 cells at 50 uM after 48 hrs by SRB assay; assay type: functional; settings: PC-3, 48 h, read-out: GI
PC-3 [6] = assay: Growth inhibition of human PC3 cells at 100 uM after 48 hrs by SRB assay; assay type: functional; settings: PC-3, 48 h, read-out: GI
THP-1 [7] = assay: Growth inhibition of human THP1 cells at 10 uM after 48 hrs by SRB assay; assay type: functional; settings: THP-1, 48 h, read-out: GI
THP-1 [8] = assay: Growth inhibition of human THP1 cells at 50 uM after 48 hrs by SRB assay; assay type: functional; settings: THP-1, 48 h, read-out: GI
THP-1 [9] = assay: Growth inhibition of human THP1 cells at 100 uM after 48 hrs by SRB assay; assay type: functional; settings: THP-1, 48 h, read-out: GI
Caco-2 [10] = assay: Growth inhibition of human Caco2 cells at 10 uM after 48 hrs by SRB assay; assay type: functional; settings: Caco-2, 48 h, read-out: GI
Caco-2 [11] = assay: Growth inhibition of human Caco2 cells at 50 uM after 48 hrs by SRB assay; assay type: functional; settings: Caco-2, 48 h, read-out: GI
Caco-2 [12] = assay: Growth inhibition of human Caco2 cells at 100 uM after 48 hrs by SRB assay; assay type: functional; settings: Caco-2, 48 h, read-out: GI
A549 [13] = assay: Growth inhibition of human A549 cells after 48 hrs by SRB assay; assay type: functional, cell-based; settings: for pIC50: A549, 48 h
PC-3 [14] = assay: Growth inhibition of human PC3 cells after 48 hrs by SRB assay; assay type: functional, cell-based; settings: for pIC50: PC-3, 48 h
THP-1 [15] = assay: Growth inhibition of human THP1 cells after 48 hrs by SRB assay; assay type: functional, cell-based; settings: for pIC50: THP-1, 48 h
Caco-2 [16] = assay: Growth inhibition of human Caco2 cells after 48 hrs by SRB assay; assay type: functional, cell-based; settings: for pIC50: Caco-2, 48 h

Row | Structure (SMILES) | inhibition of growth at 10 µM (A549 [1]) | inhibition of growth at 50 µM (A549 [2]) | inhibition of growth at 100 µM (A549 [3]) | inhibition of growth at 10 µM (PC-3 [4]) | inhibition of growth at 50 µM (PC-3 [5]) | inhibition of growth at 100 µM (PC-3 [6]) | inhibition of growth at 10 µM (THP-1 [7]) | inhibition of growth at 50 µM (THP-1 [8]) | inhibition of growth at 100 µM (THP-1 [9]) | inhibition of growth at 10 µM (Caco-2 [10]) | inhibition of growth at 50 µM (Caco-2 [11]) | inhibition of growth at 100 µM (Caco-2 [12]) | growth inhibition (GI) (A549 [13]) | pIC50 (A549 [13]) | growth inhibition (GI) (PC-3 [14]) | pIC50 (PC-3 [14]) | growth inhibition (GI) (THP-1 [15]) | pIC50 (THP-1 [15]) | growth inhibition (GI) (Caco-2 [16]) | pIC50 (Caco-2 [16])
1 | O=C1C(=O)N(CCn2cc(CN3C(=O)C(=O)c4cc([N+](=O)[O-])ccc43)nn2)c2ccc(Cl)cc21 | 11% | 80% | 99% | 30% | 44% | 72% | 29% | 82% | 88% | 17% | 21% | 33% | Dose-dependent effect | 4.41 | Dose-dependent effect | 4.27 | Dose-dependent effect | 4.59 | Dose-dependent effect | < 4.00
2 | O=C1C(=O)N(CCn2cc(CN3C(=O)C(=O)c4cc(F)ccc43)nn2)c2ccccc21 | 11% | 97% | 99% | 20% | 98% | 100% | 10% | 96% | 100% | 0% | 1% | 22% | Dose-dependent effect | 4.41 | Dose-dependent effect | 4.52 | Dose-dependent effect | 4.40 | Dose-dependent effect | < 4.00
3 | O=C1C(=O)N(CCn2cc(CN3C(=O)C(=O)c4cc(Br)ccc43)nn2)c2ccc(Cl)cc21 | 10% | 83% | 98% | 29% | 43% | 70% | 28% | 82% | 90% | 36% | 57% | 68% | Dose-dependent effect | 4.37 | Dose-dependent effect | 4.29 | Dose-dependent effect | 4.57 | Dose-dependent effect | 4.49
4 | O=C1C(=O)N(CCn2cc(CN3C(=O)C(=O)c4cc(Cl)ccc43)nn2)c2ccc(F)cc21 | 64% | 73% | 97% | 0% | 4% | 9% | 20% | 70% | 92% | 2% | 12% | 30% | Dose-dependent effect | 5.58 | Dose-dependent effect | < 4.00 | Dose-dependent effect | 4.44 | Dose-dependent effect | < 4.00
5 | O=C1C(=O)N(CCn2cc(CN3C(=O)C(=O)c4ccccc43)nn2)c2ccc(F)cc21 | 6% | 17% | 32% | 0% | 32% | 82% | 8% | 15% | 90% | 0% | 1% | 10% | Dose-dependent effect | < 4.00 | Dose-dependent effect | 4.15 | Dose-dependent effect | 4.06 | Dose-dependent effect | < 4.00
6 | O=C1C(=O)N(CCn2cc(CN3C(=O)C(=O)c4cc(Br)ccc43)nn2)c2ccccc21 | 41% | 96% | 97% | 94% | 99% | 100% | 10% | 53% | 88% | 1% | 10% | 25% | Dose-dependent effect | 4.84 | Dose-dependent effect | > 6.00 | Dose-dependent effect | 4.29 | Dose-dependent effect | < 4.00
7 | O=C1C(=O)N(CCn2cc(CN3C(=O)C(=O)c4cc([N+](=O)[O-])ccc43)nn2)c2ccc(F)cc21 | 7% | 22% | 64% | 2% | 11% | 33% | 2% | 14% | 90% | 0% | 0% | 0% | Dose-dependent effect | 4.03 | Dose-dependent effect | 4.02 | Dose-dependent effect | 4.06 | Dose-dependent effect | < 4.00
8 | Cc1ccc2c(c1)C(=O)C(=O)N2Cc1cn(CCN2C(=O)C(=O)c3cc(F)ccc32)nn1 | 8% | 57% | 99% | 0% | 31% | 48% | 14% | 88% | 89% | 0% | 15% | 44% | Dose-dependent effect | 4.30 | Dose-dependent effect | 4.07 | Dose-dependent effect | 4.41 | Dose-dependent effect | < 4.00
9 | O=C1C(=O)N(CCn2cc(CN3C(=O)C(=O)c4cc(Br)ccc43)nn2)c2ccc(F)cc21 | 41% | 79% | 98% | 0% | 2% | 51% | 26% | 85% | 94% | 0% | 7% | 13% | Dose-dependent effect | 4.79 | Dose-dependent effect | < 4.00 | Dose-dependent effect | 4.56 | Dose-dependent effect | < 4.00
